In PMC6199744, “Development of Chemical Proteomics for the Folateome and Analysis of the Kinetoplastid Folateome” (ACS Infectious Diseases, 2018):
Where two headings read alike, the source gives them in different places.

Key:
Type in all cases: binding
[1] = target: T1, HeLa cell extract proteins (Homo sapiens, UniProt P49721)
T1 construct: endogenous in cells; host or cells: HeLa cell extract

[2] = target: T2, HeLa cell extract proteins (Homo sapiens, UniProt P05141)
T2 construct: endogenous in cells; host or cells: HeLa cell extract
T2 sequence (P05141 1-298): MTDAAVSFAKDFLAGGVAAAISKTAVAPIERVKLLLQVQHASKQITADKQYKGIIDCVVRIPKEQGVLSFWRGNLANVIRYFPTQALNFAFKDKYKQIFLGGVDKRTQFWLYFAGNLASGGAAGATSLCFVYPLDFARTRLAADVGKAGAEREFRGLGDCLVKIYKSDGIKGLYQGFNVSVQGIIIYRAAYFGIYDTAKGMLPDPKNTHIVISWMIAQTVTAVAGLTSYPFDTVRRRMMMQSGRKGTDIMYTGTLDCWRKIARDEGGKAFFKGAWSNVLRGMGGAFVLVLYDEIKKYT

[3] = target: T3, HeLa cell extract proteins (Homo sapiens, UniProt Q9NR28)
T3 construct: endogenous in cells; host or cells: HeLa cell extract
T3 sequence (Q9NR28 22-239): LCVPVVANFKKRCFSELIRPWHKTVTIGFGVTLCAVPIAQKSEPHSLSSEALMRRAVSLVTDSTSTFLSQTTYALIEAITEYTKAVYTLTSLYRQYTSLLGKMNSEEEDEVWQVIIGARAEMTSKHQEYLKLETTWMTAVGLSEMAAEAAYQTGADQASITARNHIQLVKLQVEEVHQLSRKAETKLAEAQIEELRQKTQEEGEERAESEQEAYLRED

[4] = target: T4, HeLa cell extract proteins (Homo sapiens, UniProt Q9HB71)
T4 construct: endogenous in cells; host or cells: HeLa cell extract
T4 sequence (Q9HB71 whole entry): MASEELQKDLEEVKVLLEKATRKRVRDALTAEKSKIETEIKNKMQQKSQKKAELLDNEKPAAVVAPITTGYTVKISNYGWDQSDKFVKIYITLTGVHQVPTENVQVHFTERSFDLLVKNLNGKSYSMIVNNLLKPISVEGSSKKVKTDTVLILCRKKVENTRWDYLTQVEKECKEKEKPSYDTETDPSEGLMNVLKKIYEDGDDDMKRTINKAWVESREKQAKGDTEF

[5] = target: T5, HeLa cell extract proteins (Homo sapiens, UniProt P47897)
T5 construct: endogenous in cells; host or cells: HeLa cell extract
T5 sequence (P47897 1-775): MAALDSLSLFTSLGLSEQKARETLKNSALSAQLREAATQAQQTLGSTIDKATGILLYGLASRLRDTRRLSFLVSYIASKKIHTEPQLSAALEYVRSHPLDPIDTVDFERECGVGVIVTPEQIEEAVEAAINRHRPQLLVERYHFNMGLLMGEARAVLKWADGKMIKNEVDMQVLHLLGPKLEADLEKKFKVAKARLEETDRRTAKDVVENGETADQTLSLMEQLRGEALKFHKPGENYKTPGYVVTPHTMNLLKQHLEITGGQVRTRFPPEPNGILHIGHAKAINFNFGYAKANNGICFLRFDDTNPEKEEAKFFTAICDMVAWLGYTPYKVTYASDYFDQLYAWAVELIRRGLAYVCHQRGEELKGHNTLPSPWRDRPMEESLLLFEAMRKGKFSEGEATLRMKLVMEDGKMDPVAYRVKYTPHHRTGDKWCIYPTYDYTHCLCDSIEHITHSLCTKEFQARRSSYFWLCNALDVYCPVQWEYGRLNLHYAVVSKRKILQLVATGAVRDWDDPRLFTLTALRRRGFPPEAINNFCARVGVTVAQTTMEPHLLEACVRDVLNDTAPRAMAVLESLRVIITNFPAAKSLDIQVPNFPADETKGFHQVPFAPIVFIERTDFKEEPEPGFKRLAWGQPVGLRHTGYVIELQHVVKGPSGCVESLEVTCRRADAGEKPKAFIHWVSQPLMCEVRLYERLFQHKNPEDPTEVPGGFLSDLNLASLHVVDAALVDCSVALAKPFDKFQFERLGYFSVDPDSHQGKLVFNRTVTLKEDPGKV

[6] = target: T6, HeLa cell extract proteins (Homo sapiens, UniProt P51659)
T6 construct: endogenous in cells; host or cells: HeLa cell extract
T6 sequence (P51659 1-736): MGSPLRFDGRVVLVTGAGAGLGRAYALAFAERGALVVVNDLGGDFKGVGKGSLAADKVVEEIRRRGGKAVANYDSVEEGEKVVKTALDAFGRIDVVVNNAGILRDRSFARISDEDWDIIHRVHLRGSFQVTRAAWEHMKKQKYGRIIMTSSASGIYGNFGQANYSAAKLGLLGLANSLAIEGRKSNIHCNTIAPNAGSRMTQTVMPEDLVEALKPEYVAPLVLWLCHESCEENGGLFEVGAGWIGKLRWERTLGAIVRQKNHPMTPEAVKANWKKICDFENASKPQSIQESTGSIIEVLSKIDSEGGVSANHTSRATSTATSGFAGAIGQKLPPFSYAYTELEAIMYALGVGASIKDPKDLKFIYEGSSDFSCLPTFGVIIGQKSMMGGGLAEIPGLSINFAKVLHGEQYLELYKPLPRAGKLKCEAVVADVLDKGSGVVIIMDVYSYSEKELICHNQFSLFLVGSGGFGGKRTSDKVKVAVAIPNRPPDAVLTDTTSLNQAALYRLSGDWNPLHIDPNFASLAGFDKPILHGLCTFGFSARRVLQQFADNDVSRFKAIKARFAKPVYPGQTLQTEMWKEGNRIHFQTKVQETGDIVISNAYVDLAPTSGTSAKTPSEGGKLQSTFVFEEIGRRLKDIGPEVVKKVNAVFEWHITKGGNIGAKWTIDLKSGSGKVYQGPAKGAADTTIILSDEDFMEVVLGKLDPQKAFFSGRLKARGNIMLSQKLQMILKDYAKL

[7] = target: T7, HeLa cell extract proteins (Homo sapiens, UniProt P04843)
T7 construct: endogenous in cells; host or cells: HeLa cell extract
T7 sequence (P04843 24-607): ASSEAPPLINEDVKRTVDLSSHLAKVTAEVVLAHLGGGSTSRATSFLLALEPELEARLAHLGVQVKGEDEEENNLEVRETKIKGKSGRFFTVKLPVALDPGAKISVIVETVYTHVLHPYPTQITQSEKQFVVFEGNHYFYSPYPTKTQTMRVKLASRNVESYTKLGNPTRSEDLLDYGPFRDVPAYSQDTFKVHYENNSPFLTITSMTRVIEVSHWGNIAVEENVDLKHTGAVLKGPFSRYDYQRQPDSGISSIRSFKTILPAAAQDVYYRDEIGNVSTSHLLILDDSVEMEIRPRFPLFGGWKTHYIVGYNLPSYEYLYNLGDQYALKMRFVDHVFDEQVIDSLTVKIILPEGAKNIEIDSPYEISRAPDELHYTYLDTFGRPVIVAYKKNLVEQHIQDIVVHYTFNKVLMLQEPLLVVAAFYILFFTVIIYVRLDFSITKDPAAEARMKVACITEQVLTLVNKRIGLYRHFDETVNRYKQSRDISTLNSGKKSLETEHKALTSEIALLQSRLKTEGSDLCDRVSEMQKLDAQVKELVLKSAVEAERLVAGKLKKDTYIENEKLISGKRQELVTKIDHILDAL

[8] = HeLa, protein DIABLO (DIABLO HOMOLOG, MIT[…])
[9] = HeLa, protein CACYBP (ISOFORM 1 OF CALCYCLIN-BINDING PROTEIN)
[10] = HeLa, protein HSD17B4 (CDNA FLJ55431, HIGHLY SIMILAR TO PEROXISOMAL MULTIFUNCTIONAL ENZYME TYPE 2)

T1 sequence (P49721 whole entry): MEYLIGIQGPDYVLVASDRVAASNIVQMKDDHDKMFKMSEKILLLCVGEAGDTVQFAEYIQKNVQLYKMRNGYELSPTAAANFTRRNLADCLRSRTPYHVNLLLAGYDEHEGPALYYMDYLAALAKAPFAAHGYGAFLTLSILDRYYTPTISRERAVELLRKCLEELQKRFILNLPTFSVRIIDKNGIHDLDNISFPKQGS

Row | SMILES | fold changes relative to vehicle control ([1]; HeLa, captured protein PSMB2) | fold changes relative to vehicle control ([2]; HeLa, protein SLC25A5) | fold changes relative to vehicle control [4, 9] | fold changes relative to vehicle control ([5]; HeLa, captured protein QARS) | fold changes relative to vehicle control [6, 10] | fold changes relative to vehicle control ([7]; HeLa, protein RPN1) | fold changes relative to vehicle control ([1]; HeLa, protein PSMB2) | fold changes relative to vehicle control ([2]; captured protein SLC25A5, HeLa) | fold changes relative to vehicle control ([3]; captured protein DIABLO, HeLa) | fold changes relative to vehicle control ([4]; protein CACYBP, HeLa) | fold changes relative to vehicle control ([5]; HeLa, protein QARS) | fold changes relative to vehicle control ([6]; protein HSD17B4, HeLa) | fold changes relative to vehicle control ([7]; protein RPN1, HeLa) | further results
1 | Nc1nc2c(c(=O)[nH]1)N(C=O)C(CNc1ccc(C(=O)N[C@@H](CCC(=O)O)C(=O)O)cc1)CN2 (stereo partly shown) [LEU, leucovorin] | 1.2 | 0.84 | 0.85 | 0.97 | 1.25 | 0.88 |  |  |  |  |  |  |  | fold changes relative to vehicle control [3, 8]: 1.06
2 | Nc1nc2[nH]cc(CCc3ccc(C(=O)N[C@@H](CCC(=O)O)C(=O)O)cc3)c2c(=O)[nH]1 [PTX, pemetrexed] |  |  |  |  |  |  |  |  |  |  |  |  |  | fold changes relative to vehicle control [1]: 1.13; fold changes relative to vehicle control [2]: 0.9; fold changes relative to vehicle control [3]: 1.01; fold changes relative to vehicle control [4]: 1; fold changes relative to vehicle control [5]: 0.9; fold changes relative to vehicle control [6]: 1.15; fold changes relative to vehicle control [7]: 0.96
3 | CCCCCCOc1ccc(Cc2cnc(N)nc2N)cc1 [compound 1] |  |  |  |  |  |  | 1.03 | 0.96 | 1.09 | 1.12 | 0.99 | 1.07 | 1.09 | 
4 | CCCCCCOc1cccc(Cc2cnc(N)nc2N)c1 [compound 2] |  |  |  |  |  |  | 1.24 | 0.9 | 0.97 | 1.37 | 1.16 | 1.22 | 1.28 | 
5 | Nc1nc2cccc(-c3ccccc3)c2n1Cc1ccc(Cl)c(Cl)c1 [compound 3] |  |  |  |  |  |  | 1.07 | 1.02 | 1.01 | 0.93 | 1.01 | 1.14 | 1.02 | 
6 | NCCOCCOCC(=O)Nc1nc2ncc(CNc3ccc(C(=O)NC(CCC(=O)O)C(=O)O)cc3)nc2c(=O)[nH]1 (stereo not shown) [compound 6] | 1.03 | 0.97 | 1.16 | 0.95 | 1.02 | 0.96 |  |  |  |  |  |  |  | fold changes relative to vehicle control ([3]; HeLa, protein DIABLO (DIABLO HOMOLOG, MITOCHONDRIAL PRECURSOR)): 0.99
7 | NCCCNc1ccc(C(=O)NC(CCC(=O)O)C(=O)O)cc1 (stereo not shown) [compound 7] | 1.07 | 0.96 | 1.16 | 0.92 | 1.07 | 0.94 |  |  |  |  |  |  |  | fold changes relative to vehicle control [3, 8]: 1.05
